Patent US8048869B2, “Pharmaceutical composition for use in hormone replacement therapy” (Pantarhei Bioscience B.V., priority 2001, dated 2011)

Columns and labels:
[1] = tritium labeled, intravenously, two adult women; cited from earlier work
[2] = target: T1, human sex Hormone Binding Globulin (SHBG) (Homo sapiens, UniProt P04278); assay: Competitive steroid-binding assay, SHBG; details: [3H]DHT or [3H]estradiol as labeled ligands (FIG. 6)
T1 construct: Human SHBG was purified from transgenic mouse serum, as described previously; from tissue; host or cells: serum of mice transgenic for human SHBG
T1 sequence (P04278 30-402): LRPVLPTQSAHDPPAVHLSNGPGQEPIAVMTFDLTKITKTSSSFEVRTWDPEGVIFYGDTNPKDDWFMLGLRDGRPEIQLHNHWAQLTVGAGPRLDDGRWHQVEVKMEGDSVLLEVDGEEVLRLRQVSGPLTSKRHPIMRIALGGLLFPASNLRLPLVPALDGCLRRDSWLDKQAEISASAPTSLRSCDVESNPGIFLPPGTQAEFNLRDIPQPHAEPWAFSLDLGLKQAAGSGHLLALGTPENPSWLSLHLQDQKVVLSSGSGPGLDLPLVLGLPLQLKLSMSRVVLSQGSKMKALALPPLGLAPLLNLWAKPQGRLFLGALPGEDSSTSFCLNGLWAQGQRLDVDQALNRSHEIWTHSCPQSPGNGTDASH
Protocol: Human SHBG was treated for 30 min at room temperature with a dextran-coated charcoal (DCC) suspension in phosphate buffered saline (PBS) to remove any steroid ligand. After centrifugation (2,000×g for 10 min) to sediment the DCC, the supernatant containing the human SHBG was diluted in PBS to a concentration of 1 nM based on its steroid binding capacity.
After incubation for 1 h at room temperature the. reaction mixtures were placed in an ice bath for a further 15 muin. […] The average amounts of [^3H]labeled ligands bound to SHBG at each concentration of competitor (B) were expressed as a percentage of the average amounts of [^3H]labeled ligands bound to SHBG in the absence of competitor (B0), and were plotted against the concentration of competitor in each assay tube.

[3] = system: estrogen receptors in the human endometrium; details: cited from earlier work
[4] = system: immature rat uterus; details: subcutaneously administered; cited from earlier work
[5] = system: human breast cancer cells (MCF-7); details: cited from earlier work
[6] = target: T2, human ERα (Homo sapiens, UniProt P03372); assay: Competitive steroid binding assay, ERα; details: from Ki values for human ERα and ERβ
T2 sequence (P03372 1-595): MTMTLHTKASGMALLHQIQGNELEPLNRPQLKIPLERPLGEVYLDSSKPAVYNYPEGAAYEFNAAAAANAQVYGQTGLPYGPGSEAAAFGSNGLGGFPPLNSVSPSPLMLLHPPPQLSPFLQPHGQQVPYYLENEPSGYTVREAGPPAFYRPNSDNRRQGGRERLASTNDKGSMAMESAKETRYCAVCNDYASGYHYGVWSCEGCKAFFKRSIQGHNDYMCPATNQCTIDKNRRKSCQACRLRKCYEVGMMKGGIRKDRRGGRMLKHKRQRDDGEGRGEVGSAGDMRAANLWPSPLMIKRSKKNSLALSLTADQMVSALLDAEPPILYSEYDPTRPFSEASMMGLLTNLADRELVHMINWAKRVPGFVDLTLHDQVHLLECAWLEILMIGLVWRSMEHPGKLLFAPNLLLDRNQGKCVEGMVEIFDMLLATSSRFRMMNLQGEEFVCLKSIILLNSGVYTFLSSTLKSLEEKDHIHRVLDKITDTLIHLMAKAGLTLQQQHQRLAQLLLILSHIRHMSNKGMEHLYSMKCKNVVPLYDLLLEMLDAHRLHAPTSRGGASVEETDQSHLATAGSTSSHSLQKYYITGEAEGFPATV

[7] = system: nonpregnant ewes; details: intravenously administered; cited from earlier work
[8] = system: morphine-dependent ovariectomized (OVX) rat; assay: Morphine-dependent OVX rat hot flush model, naloxone-induced tail skin temperature rise; assay type: in vivo
Protocol: The morphine-dependent ovariectomized (OVX) rat was used as a model for postmenopausal hot flush. The potency of estetrol (E4) to prevent tail skin temperature rises, normally accompanied by a drop in core body temp arature, after naloxone-induced opiate withdrawel was tested. 17α-ethinyl-estradiol (EE) and vehicle. (hydroxy propyl-beta-cyclodextrin 20% wt/vol) served as controls in this bioassay.
The morphine-dependent ovariectomized (OVX) rat model has been proposed by several investigators (Katovich et al, 1986, Maturitas, 67-76; Merchenthaler et al. 1998, Maturitas, 307-316) as an animal model for the hot flush. During opiate withdrawal with the morphine antagonist naloxone, tail skin temperature (TST) rises and this rise is accompanied by a drop in core body temperature. In addition, the temperature changes are accompanied by surges in LH and a transient tachycardia. These events are similar in magnitude and temporal nature to those observed in the menopausal hot flush.
Three days prior to the commencement of dosing, animals were anesthetized using a ketamine/xylazine anesthetic mixture and underwent a bilateral ovariectomy. […]
For the hot flush manipulations the animals were placed in a test cage. […] The tail-skin temperature was recorded until it was stable and the animals were then injected with naloxone HCl (1 mg/kg). […]

## C[C@]12CC[C@@H]3c4ccc(O)cc4CC[C@H]3[C@@H]1[C@@H](O)[C@@H](O)[C@@H]2O [E4, 1,3,5 (10)-estratrien-3,15α,16α,17β-tetrol]
[1]
  excretion and metabolism: rapidly and completely excreted in urine as the glucosiduronate
[2]
  relative binding affinity for human SHBG: does not bind at all
[3]; Tseng et al. 1976
  relative binding constant to the estrogen receptor compared to 17β-estradiol (100%): 6.25%
[3]; Tseng et al. 1978
  Relative binding to estrogen receptors, relative to 17β-estradiol: 1.5%
[4]
  uterotrophic activity: very weak uterotrophic activity
[5]
  agonistic potency in in vitro cell proliferation, relative to 17β-estradiol: 2%
[6]
  Relative ERα/ERβ preference: 400%
[7]
  potency in uterine vasodilation relative to estriol and 17β-estradiol: 15 to 30 times less potent
[8]; po, 3.0 mg/kg/day (FIG. 3)
  suppressive response on TST compared with EE: suppressive response similar to the potent oral estrogen, 17α-ethinyl estradiol (EE)
[8]; po, 0.3, 1.0 and 3.0 mg/kg/day (FIG. 3)
  effect on naloxone-induced tail skin temperature (TST): attenuated the TST
